Measurements from paper PMC12019328, “Discovery of an ApoE4-targeted small-molecule SirT1 enhancer for the treatment of Alzheimer’s disease” (Scientific Reports, 2025).

Test: Brain tissue binding (dialysis of brain homogenate)
Assay type: in vitro ADME
Settings: pH 7.4, brain homogenate 20 mg/mL, 2 µM compound, 37 °C, read-out: Brain Tissue Binding [fu,bound (%)]
Method: Figure S3B. SirT1 protein levels in N2a-E4 cells after A03 and DDL-214 treatment. Compound treatment was done at 5 and 50 µM. SirT1 levels were measured by AlphaLISA followed and normalized to protein […]
DDL-218 Physiochemical Properties
Brain Tissue Binding [fu,bound (%)]
Brain tissue was homogenized in PBS (pH 7.4) (1: 3 weight(mg)/volume(µL)) and the protein concentration of was determined using the Micro BCA™ Protein Assay Kit (Thermo Fisher Scientific, Cat#23235). Brain homogenate was diluted to 20 mg/mL in PBS (pH 7.4) and added to Slide-A-Lyzer™ MINI Dialysis Devices, 10K MWCO dialysis cups (Thermo Fisher Scientific, Cat#PI88401) in 48-well plate containing PBS (500 µL; pH 7.4). 1 µL of […] compound was added to the brain homogenate (Final Concentration: 2 µM compound, 0.5% DMSO) and incubated on a rocker for 4.5 hours at 37 °C. 50 µL of brain homogenate (within the dialysis cup) and PBS (within the 48-well plate) were transferred to new microcentrifuge tubes containing 200 µL of quenching reagent (100% Acetonitrile) containing internal standard. […]
The % of the unbound drug (fu,bound) was calculated using the following equation: fu,bound = [normalized peak area in buffer side / normalized peak area in brain side] x 100 Liver Microsome Stability [t1/2 (min)] […]

SMILES: CC(N)C(=O)OC(C)(C)Cc1ccncc1 (stereo not shown) [DDL-218]
- fraction unbound at 4.5 h, 2 µM: 0.43
